Laboratory results taken from ChEMBL document CHEMBL4387789, “Linear Peptides Containing d-Leucine with Neuroprotective Activities from the Leech Whitmania pigra Whitman” (J Nat Prod, 2019).

Legend:
[1] = Stability in 50% diluted pooled rat serum assessed compound degradation at 1.5 mg measured within 2 hrs by HPLC analysis; format: ADME, cell-free
N2a [2] = assay: Neuroprotective activity against oxygen-glucose deprivation/reperfusion injury in mouse Neuro2a cells assessed as cell viability at 50 uM added 4 hrs prior to oxygen-glucose deprivation induction by MTT assay (Rvb 61 +/- 5%); format: functional; conditions: read-out: Activity
[3] = Stability in 50% diluted pooled rat serum assessed parent compound remaining at 1.5 mg measured after 24 hrs by HPLC analysis; format: ADME, cell-free; conditions: read-out: Stability
N2a [4] = assay: Neuroprotective activity against oxygen-glucose deprivation/reperfusion injury in mouse Neuro2a cells assessed as cell viability at 6.25 uM added 4 hrs prior to oxygen-glucose deprivation induction by MTT assay (Rvb 61 +/- 5%); format: functional; conditions: read-out: Activity

| Compound | Stability [1] | viability at 50 µM (N2a [2]) [%] | remaining at 24 h [3] [%] | viability at 6.25 µM (N2a [4]) [%] |
| --- | --- | --- | --- | --- |
| CC(C)C[C@H](NC(=O)[C@@H](NC(=O)CNC(=O)[C@H](CO)NC(=O)[C@H](CC(C)C)NC(=O)[C@@H](N)CC(C)C)C(C)C)C(=O)NCC(=O)O | Stable | – | – | – |
| CC(C)C[C@H](N)C(=O)N[C@H](CC(C)C)C(=O)N[C@@H](CO)C(=O)NCC(=O)N[C@H](C(=O)N[C@H](CC(C)C)C(=O)NCC(=O)NCC(=O)O)C(C)C | – | 82 | 65 | – |
| CC(C)C[C@H](N)C(=O)N[C@H](CC(C)C)C(=O)N[C@@H](CO)C(=O)NCC(=O)N[C@H](C(=O)O)C(C)C | – | 86 | 65 | – |
| CC(C)C[C@H](NC(=O)[C@@H](NC(=O)CNC(=O)[C@H](CO)NC(=O)[C@H](CC(C)C)NC(=O)[C@@H](N)CC(C)C)C(C)C)C(=O)NCC(=O)NCC(=O)O | Stable | – | – | – |
| CC(C)C[C@H](N)C(=O)N[C@H](CC(C)C)C(=O)N[C@@H](CO)C(=O)NCC(=O)N[C@H](C(=O)N[C@H](CC(C)C)C(=O)NCC(=O)O)C(C)C | – | – | 65 | 79 |
| CC(C)C[C@H](NC(=O)[C@@H](N)CC(C)C)C(=O)N[C@@H](CO)C(=O)NCC(=O)N[C@H](C(=O)O)C(C)C | Stable | – | – | – |
| CC1=NN(c2ccccc2)C(=O)C1 [EDARAVONE] | – | 90 | – | – |
